In patent publication US12583861B2, “Derivatives of imidazo[4,5-d]pyridazine, their preparation and their therapeutic application” (SANOFI, priority 2021, dated 2026):

Key:
human TLR7 = target: T1, human TLR7 (Homo sapiens, UniProt Q9NYK1); experiment: HEK-Blue hTLR7 reporter cell assay (SEAP, NF-kB/AP-1) for stimulation of human TLR7; type: cell-based; conditions: HEK-Blue hTLR7 cells, 24 h incubation, SEAP readout; read-out: TLR7_EC50
T1 construct: host or cells: HEK293 (HEK-Blue hTLR7)
T1 sequence (Q9NYK1 27-1049): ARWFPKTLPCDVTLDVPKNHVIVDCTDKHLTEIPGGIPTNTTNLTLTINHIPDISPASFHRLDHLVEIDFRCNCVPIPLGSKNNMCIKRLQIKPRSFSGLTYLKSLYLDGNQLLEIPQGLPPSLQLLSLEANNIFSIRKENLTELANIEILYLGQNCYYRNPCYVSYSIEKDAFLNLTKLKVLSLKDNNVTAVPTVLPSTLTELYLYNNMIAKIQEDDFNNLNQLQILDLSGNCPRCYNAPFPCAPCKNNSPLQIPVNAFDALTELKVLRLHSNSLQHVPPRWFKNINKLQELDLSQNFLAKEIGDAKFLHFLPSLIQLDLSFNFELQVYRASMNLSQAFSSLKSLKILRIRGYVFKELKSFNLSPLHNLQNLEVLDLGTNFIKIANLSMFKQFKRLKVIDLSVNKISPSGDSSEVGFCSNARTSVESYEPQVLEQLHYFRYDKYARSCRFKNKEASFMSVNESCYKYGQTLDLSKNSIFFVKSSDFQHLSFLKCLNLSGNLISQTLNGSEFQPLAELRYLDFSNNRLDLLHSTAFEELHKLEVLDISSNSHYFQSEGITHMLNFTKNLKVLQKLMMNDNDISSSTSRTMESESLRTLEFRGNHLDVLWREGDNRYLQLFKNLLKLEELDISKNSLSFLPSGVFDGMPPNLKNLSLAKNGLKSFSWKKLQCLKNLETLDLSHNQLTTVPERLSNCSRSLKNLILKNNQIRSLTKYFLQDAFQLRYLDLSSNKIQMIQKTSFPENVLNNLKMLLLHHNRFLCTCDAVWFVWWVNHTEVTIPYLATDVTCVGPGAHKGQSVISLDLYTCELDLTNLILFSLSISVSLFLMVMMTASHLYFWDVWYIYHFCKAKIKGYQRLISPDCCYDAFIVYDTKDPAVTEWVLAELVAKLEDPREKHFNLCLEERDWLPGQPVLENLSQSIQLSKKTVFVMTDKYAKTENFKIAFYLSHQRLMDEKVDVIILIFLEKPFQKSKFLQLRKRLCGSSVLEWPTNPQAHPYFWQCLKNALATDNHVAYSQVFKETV
Procedure: (§1) The below tests, involving measuring the in vitro activity of some compounds of the disclosure on TLR7 and TLR8, were carried out using the HEK-Blue™ cells as reporter.
The activity described below, with respect to TLR7, TLR8, IFN-α2a, IL-6, IL29 and TNF-α, is given by the half maximal effective concentration (EC50), which corresponds to the concentration required to obtain a 50% of the activation. The lower the EC50, the less the concentration of the compound is required to produce 50% of maximum activation and the higher the potency.
(§2) In Vitro Assay for Studying the Stimulation of Human TLR7 and TLR8:
(§3) HEK-Blue™ hTLR7 Cells (#hkb-htlr7) and HEK-Blue™ hTLR8 Cells (#hkb-htlr8) from InvivoGen were used according to the manufacturer's instructions. These Reporter HEK293 cells were obtained by co-transfection of the hTLR7 or TLR8 gene and an optimized Secreted Embryonic Alkaline Phosphatase (SEAP) reporter gene which is placed under the control of the IFN-β minimal promoter fused to five NF-κB and AP-1-binding sites. Stimulation with a TLR7/8 ligand activates NF-kB and AP-1 which induce the production of SEAP. The cells are seeded in 96-well plate at 3.10E4 cells/well and incubated 18 to 24 h at 37° C., 5% CO2 before adding the compounds to evaluate. The cells are subsequently incubated with 3-fold serial dilutions of each of the compounds (0.01 to 20 μM) for 24 hours at 37° C., 5% CO2. Next, 20 μL of the supernatant is harvested and incubated with 200 μL of QUANTI-Blue™ Solution.

human TLR8 = target: T2, human TLR8 (Homo sapiens, UniProt Q9NR97); experiment: HEK-Blue hTLR8 reporter cell assay (SEAP, NF-kB/AP-1) for stimulation of human TLR8; type: cell-based; conditions: HEK-Blue hTLR8 cells, 24 h incubation, SEAP readout; read-out: TLR8_EC50
T2 construct: host or cells: HEK293 (HEK-Blue hTLR8)
T2 sequence (Q9NR97 27-1041): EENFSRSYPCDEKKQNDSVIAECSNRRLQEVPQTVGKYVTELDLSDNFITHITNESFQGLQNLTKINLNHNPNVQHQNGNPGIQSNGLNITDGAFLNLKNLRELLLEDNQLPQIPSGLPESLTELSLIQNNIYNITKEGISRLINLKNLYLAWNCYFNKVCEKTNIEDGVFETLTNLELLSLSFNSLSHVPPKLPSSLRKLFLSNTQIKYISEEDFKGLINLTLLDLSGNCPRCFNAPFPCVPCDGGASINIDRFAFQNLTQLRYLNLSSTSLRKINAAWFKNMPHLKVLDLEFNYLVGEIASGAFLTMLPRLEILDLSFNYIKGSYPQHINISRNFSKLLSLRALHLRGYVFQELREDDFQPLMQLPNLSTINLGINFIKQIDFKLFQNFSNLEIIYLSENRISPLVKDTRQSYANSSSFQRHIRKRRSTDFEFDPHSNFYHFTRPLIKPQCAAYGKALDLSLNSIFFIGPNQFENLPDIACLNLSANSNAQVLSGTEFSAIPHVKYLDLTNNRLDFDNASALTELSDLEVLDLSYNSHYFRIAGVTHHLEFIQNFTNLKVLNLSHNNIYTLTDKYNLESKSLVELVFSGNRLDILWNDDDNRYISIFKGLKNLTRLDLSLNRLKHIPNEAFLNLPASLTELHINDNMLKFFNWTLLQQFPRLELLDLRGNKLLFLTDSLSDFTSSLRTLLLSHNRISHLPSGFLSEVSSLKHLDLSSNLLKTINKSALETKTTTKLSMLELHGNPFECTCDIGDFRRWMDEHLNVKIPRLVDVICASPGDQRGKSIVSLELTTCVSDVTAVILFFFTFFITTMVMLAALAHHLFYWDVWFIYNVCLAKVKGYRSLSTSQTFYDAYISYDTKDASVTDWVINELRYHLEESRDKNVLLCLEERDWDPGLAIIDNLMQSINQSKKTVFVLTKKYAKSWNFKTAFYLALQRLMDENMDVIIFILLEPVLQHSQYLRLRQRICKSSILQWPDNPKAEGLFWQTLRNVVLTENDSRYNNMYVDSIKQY
Procedure: as §1, §2
as §3, with “The cells are subsequently incubated with 3-fold serial dilutions of each of the compounds (0.01 to 20 μM) for 24 hours at 37° C., 5% CO2.” left out

| SMILES | EC50 (human TLR7) | EC50 (human TLR8) |
| --- | --- | --- |
| CCCCCCCCCCC(=O)NCc1ccc(Cn2c(CCCC)nc3c(N)nnc(OC(C)C)c32)cc1 [Compound 29, N-(4-((4-amino-2-butyl-7-isopropoxy-1H-imidazo[4,5-d]pyridazin-1-yl)methyl)benzyl)undecanamide] | 117 nM | > 20000 nM |
| CCCCC(=O)NCc1ccc(Cn2c(CCCC)nc3c(N)nnc(OC(C)C)c32)cc1 [Compound 30, N-(4-((4-amino-2-butyl-7-isopropoxy-1H-imidazo[4,5-d]pyridazin-1-yl)methyl)benzyl)pentanamide] | 161 nM | > 20000 nM |
| CCCCc1nc2c(N)nnc(OC(C)C)c2n1Cc1ccc(CNC(=O)CCOCCOC)cc1 [Compound 31, N-(4-((4-amino-2-butyl-7-isopropoxy-1H-imidazo[4,5-d]pyridazin-1-yl)methyl)benzyl)-3-(2-methoxyethoxy)propanamide] | 326 nM | > 20000 nM |
| CCCCc1nc2c(N)nnc(OC(C)C)c2n1Cc1ccc(CNC2CC2)cc1 [Compound 36, 2-butyl-1-(4-((cyclopropylamino)methyl)benzyl)-7-isopropoxy-1H-imidazo[4,5-d]pyridazin-4-amine] | 19 nM | 448 nM |
| CCCCc1nc2c(N)nnc(OC(C)C)c2n1Cc1ccc(CNC2CS(=O)(=O)C2)cc1 [Compound 37, 3-((4-((4-amino-2-butyl-7-isopropoxy-1H-imidazo[4,5-d]pyridazin-yl)methyl)benzyl)amino)thietane 1,1-dioxide] | 317 nM | > 20000 nM |
| CCCCc1nc2c(N)nnc(OC(C)C)c2n1Cc1ccc(CN(C(C)=O)C2CS(=O)(=O)C2)cc1 [Compound 38, N-(4-((4-amino-2-butyl-7-isopropoxy-1H-imidazo[4,5-d]pyridazin-1-yl)methyl)benzyl)-N-(1,1-dioxidothietan-3-yl)acetamide] | 345 nM | 14700 nM |
| CCCCc1nc2c(N)nnc(OC(C)C)c2n1Cc1ccc(CNC2(C)CCC2)cc1 [Compound 39, 2-butyl-7-isopropoxy-1-(4-(((1-methylcyclobutyl)amino)methyl)benzyl)-1H-imidazo[4,5-d]pyridazin-4-amine] | 17 nM | 401 nM |
| CCCCc1nc2c(N)nnc(OC(C)C)c2n1Cc1ccc(CN2CCNCC2)cc1 [Compound 40, 2-butyl-7-isopropoxy-1-(4-(piperazin-1-ylmethyl)benzyl)-1H-imidazo[4,5-d]pyridazin-4-amine] | 21 nM | 2290 nM |
| CCCCc1nc2c(N)nnc(N3CCCC3)c2n1C [Compound 42, 2-butyl-1-methyl-7-(pyrrolidin-1-yl)-1H-imidazo[4,5-d]pyridazin-4-amine] | 1480 nM | 8780 nM |
| CCCCc1nc2c(N)nnc(N(C)Cc3ccc(CN4CCOCC4)cc3)c2n1C [Compound 44, 2-butyl-N7,1-dimethyl-N7-(4-(morpholinomethyl)benzyl)-1H-imidazo[4,5-d]pyridazine-4,7-diamine] | 1130 nM | 467 nM |
| CCCCc1nc2c(N)nnc(N(C)Cc3ccc(C#N)cc3)c2n1C [Compound 45, 4-(((4-amino-2-butyl-1-methyl-1H-imidazo[4,5-d]pyridazin-7-yl)(methyl)amino)methyl)benzonitrile] | > 20000 nM | 9420 nM |
| CCCCc1nc2c(N)nnc(N(C)Cc3ccc(CN)cc3)c2n1C [Compound 46, N7-(4-(aminomethyl)benzyl)-2-butyl-N7,1-dimethyl-1H-imidazo[4,5-d]pyridazine-4,7-diamine] | 6140 nM | 4070 nM |
| CCCCc1nc2c(N)nnc(N(C)Cc3ccc(CN(C)CCOC)cc3)c2n1C [Compound 47, 2-butyl-N7-(4-(((2-methoxyethyl)(methyl)amino)methyl)benzyl)-N7,1-dimethyl-1H-imidazo[4,5-d]pyridazine-4,7-diamine] | 421 nM | 223 nM |
| CCCCc1nc2c(N)nnc(OC)c2n1Cc1ccc(OC)cc1 [Compound 50, 2-butyl-7-methoxy-1-(4-methoxybenzyl)-1H-imidazo[4,5-d]pyridazin-4-amine] | 269 nM | > 20000 nM |
| CCCCc1nc2c(N)nnc(C3CCCCC3)c2n1Cc1ccc(OC)cc1 [Compound 51, 2-butyl-7-cyclohexyl-1-(4-methoxybenzyl)-1H-imidazo[4,5-d]pyridazin-4-amine] | 1020 nM | > 20000 nM |
| CCCCc1nc2c(N)nnc(OCc3ccccc3)c2n1Cc1ccc(OC)cc1 [Compound 52, 7-(benzyloxy)-2-butyl-1-(4-methoxybenzyl)-1H-imidazo[4,5-d]pyridazin-4-amine] | 551 nM | > 20000 nM |
| CCCCc1nc2c(N)nnc(NC)c2n1Cc1ccc(OC)cc1 [Compound 53, 2-butyl-1-(4-methoxybenzyl)-N7-methyl-1H-imidazo[4,5-d]pyridazine-4,7-diamine] | 775 nM | > 20000 nM |
| CCCCc1nc2c(N)nnc(O[C@H]3CCOC3)c2n1Cc1ccc(OC)cc1 [Compound 54, (S)-2-butyl-1-(4-methoxybenzyl)-7-((tetrahydrofuran-3-yl)oxy)-1H-imidazo[4,5-d]pyridazin-4-amine] | 610 nM | > 20000 nM |
